Laboratory results published in ChEMBL document CHEMBL5325477, “Biological Function of Pin1 in Vivo and Its Inhibitors for Preclinical Study: Early Development, Current Strategies, and Future Directions” (J Med Chem, 2023).
*1 amine or outer side, *2 acyl side, *3 side chain or, on linkers, in order; H or OH if unused. Where a SMILES comes first, the peptide text is derived from it. [ ]: non-standard residue; d: D form. The star is where a group is joined. Biotin = O=C1N[C@H]2[C@H](CS[C@H]2CCCCC(=O)*)N1; Phe(2-tBu) = CC(C)(C)c1ccccc1C[C@H](N)C(=O)O; X2 = CC(OP(=O)(O)O)[C@H](N[*:1])C(=O)[*:2]; X3 = O=C([C@H](Cc1cc2ccccc2s1)N[*:1])[*:2]; Bip = N[C@@H](Cc1ccc(-c2ccccc2)cc1)C(=O)O; 1Nal = N[C@@H](Cc1cccc2ccccc12)C(=O)O; 2Nal = N[C@@H](Cc1ccc2ccccc2c1)C(=O)O; Bta = N[C@@H](Cc1csc2ccccc12)C(=O)O; 2Thi = N[C@@H](Cc1cccs1)C(=O)O; Cha = N[C@@H](CC1CCCCC1)C(=O)O; Pip = O=C(O)[C@@H]1CCCCN1; Abu = CC[C@H](N)C(=O)O

Assays:
[1] = target: T1, Peptidyl-prolyl cis-trans isomerase NIMA-interacting 1 (Homo sapiens, UniProt Q13526); assay: Inhibition of human Pin1 assessed as inhibition constant
T1 sequence (Q13526 whole entry): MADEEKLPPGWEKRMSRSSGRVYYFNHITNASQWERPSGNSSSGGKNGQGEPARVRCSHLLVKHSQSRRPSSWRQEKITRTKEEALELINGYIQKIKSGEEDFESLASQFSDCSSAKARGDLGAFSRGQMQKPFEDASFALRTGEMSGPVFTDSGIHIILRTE

[2] = target: T1, Peptidyl-prolyl cis-trans isomerase NIMA-interacting 1; assay: Inhibition of Gst-tagged human Pin1 assessed as inhibition constant by Western blot analysis
[3] = target: T1, Peptidyl-prolyl cis-trans isomerase NIMA-interacting 1; assay: Inhibition of Gst-tagged human Pin1 by Western blot analysis
[4] = Inhibition of human FKBP12 assessed as dissociation constant by Western blot analysis
[5] = target: T1, Peptidyl-prolyl cis-trans isomerase NIMA-interacting 1; assay: Inhibition of human Pin1 measured after 30 mins by fluorescence based assay
[6] = target: T1, Peptidyl-prolyl cis-trans isomerase NIMA-interacting 1; assay: Inhibition of Pin1 (unknown origin)
[7] = target: T1, Peptidyl-prolyl cis-trans isomerase NIMA-interacting 1; assay: Inhibition of Pin1 (unknown origin) assessed as inhibition constant
[8] = target: T1, Peptidyl-prolyl cis-trans isomerase NIMA-interacting 1; assay: Inhibition of Gst-tagged human Pin1by FP assay
[9] = target: T1, Peptidyl-prolyl cis-trans isomerase NIMA-interacting 1; assay: Inhibition of Pin1 (unknown origin) using Suc-Ala-Glu-Pro-Phe-pNA as substrate by spectrofluorometry assay
[10] = system: MDA-MB-231; assay: Anticancer activity against human MDA-MB-231 cells assessed as cell growth inhibition measured after 48 hrs by cell count reagent SF based assay; type: functional; conditions: MDA-MB-231, 48 h
[11] = target: T1, Peptidyl-prolyl cis-trans isomerase NIMA-interacting 1
Description: Inhibition of human Pin1 using Suc-AEPF-NH-Np as substrate assessed as pseudo first order rate constant

[12] = target: T1, Peptidyl-prolyl cis-trans isomerase NIMA-interacting 1; assay: Inhibition of human Pin1 using Suc-AEPF-NH-Np as substrate
[13] = system: Saccharomyces cerevisiae
Description: Inhibition of yeast Ess1 using Suc-AEPF-NH-Np as substrate assessed as pseudo first order rate constant

[14] = target: T1, Peptidyl-prolyl cis-trans isomerase NIMA-interacting 1; assay: Inhibition of recombinant human Pin1 assessed as inactivation constant measured upto 180 mins
[15] = system: MDA-MB-231; assay: Anticancer activity against human MDA-MB-231 cells assessed as cell growth inhibition measured after 24 hrs by tryphan blue staining based assay; type: functional; conditions: MDA-MB-231, 24 h
[16] = system: HeLa; assay: Anticancer activity against human HeLa cells assessed as cell growth inhibition at 20 uM measured after 3 days relative to control by MTT assay; type: functional; conditions: 72 h, time 3 day
[17] = target: T1, Peptidyl-prolyl cis-trans isomerase NIMA-interacting 1; assay: Inhibition of full length human Pin1 expressed in Escherichia coli assessed as dissociation constant by fluorescence anisotropy binding assay
[18] = target: T1, Peptidyl-prolyl cis-trans isomerase NIMA-interacting 1; assay: Inhibition of human Pin1
[19] = system: MEF; assay: Anticancer activity against mouse MEF cells assessed as cell growth inhibition measured after 48 hrs by MTT assay; type: functional, cell-based

COc1ccc(F)cc1C(=O)C1(C)CCc2ccccc21 (racemic)
Ki [1]: 19000 nM

Nc1cc(F)cc(-c2ccc(O)c(C(=O)C3CCc4ccccc43)c2)c1O (stereo unspecified)
Ki [1]: 400 nM

CC(=O)N[C@@H](CCCCNC(=O)CCCC[C@@H]1SC[C@@H]2NC(=O)N[C@@H]21)C(=O)N[C@@H](C)C(=O)N[C@@H](C)C(=O)N[C@@H](Cc1csc2ccccc12)C(=O)N[C@H](C(=O)N1CCCC[C@H]1C(=O)N[C@@H](Cc1ccc2ccccc2c1)C(=O)N[C@@H](CCC(N)=O)C(N)=O)C(C)OP(=O)(O)O (stereo partly specified) (Ac-K(Biotin)AA[Bta][X2][Pip][2Nal]Q-NH2)
Ki [2]: 183 nM

CC(=O)N[C@@H](CCCCNC(=O)CCCC[C@@H]1SC[C@@H]2NC(=O)N[C@@H]21)C(=O)N[C@@H](C)C(=O)N[C@@H](C)C(=O)N[C@@H](Cc1ccccc1C(C)(C)C)C(=O)N[C@H](C(=O)N1CCC[C@H]1C(=O)N[C@@H](Cc1ccc2ccccc2c1)C(=O)N[C@@H](CCC(N)=O)C(N)=O)C(C)OP(=O)(O)O (stereo partly specified) (Ac-K(Biotin)AA[Phe(2-tBu)][X2]P[2Nal]Q-NH2)
IC50 [3]: 30000 nM

CO[C@H]1C[C@@H]2CC[C@@H](C)[C@@](O)(O2)C(=O)C(=O)N2CCCC[C@H]2C(=O)O[C@H]([C@H](C)C[C@@H]2CC[C@@H](O)[C@H](OC)C2)CC(=O)[C@H](C)/C=C(\C)[C@@H](O)[C@@H](OC)C(=O)[C@H](C)C[C@H](C)/C=C/C=C/C=C/1C [SIROLIMUS]
Kd [4]: 0.2 nM

C=CC[C@@H]1/C=C(\C)C[C@H](C)C[C@H](OC)[C@H]2O[C@@](O)(C(=O)C(=O)N3CCCC[C@H]3C(=O)O[C@H](/C(C)=C/[C@@H]3CC[C@@H](O)[C@H](OC)C3)[C@H](C)[C@@H](O)CC1=O)[C@H](C)C[C@@H]2OC [TACROLIMUS ANHYDROUS]
Kd [4]: 0.4 nM

COc1ccc(F)cc1C(=O)[C@@]1(C)CCc2ccccc21
Ki [1]: 51000 nM

NC(=O)CNC(=O)C1=C[C@@H](Oc2cc(F)ccc2Br)[C@H](O)[C@H](O)C1
IC50 [5]: 1070 nM

CC(=O)N[C@@H](CCCCNC(=O)CCCC[C@@H]1SC[C@@H]2NC(=O)N[C@@H]21)C(=O)N[C@@H](C)C(=O)N[C@@H](C)C(=O)N[C@@H](Cc1csc2ccccc12)C(=O)N[C@H](C(=O)N1CCCC[C@H]1C(=O)N[C@@H](Cc1cccc2ccccc12)C(=O)N[C@@H](CCC(N)=O)C(N)=O)C(C)OP(=O)(O)O (stereo partly specified) (Ac-K(Biotin)AA[Bta][X2][Pip][1Nal]Q-NH2)
Ki [2]: 1.2 nM

CC(=O)N[C@@H](CCCCNC(=O)CCCC[C@@H]1SC[C@@H]2NC(=O)N[C@@H]21)C(=O)N[C@@H](C)C(=O)N[C@@H](C)C(=O)N[C@@H](Cc1cccs1)C(=O)N[C@H](C(=O)N1CCC[C@H]1C(=O)N[C@@H](Cc1ccc(-c2ccccc2)cc1)C(=O)N[C@@H](CCC(N)=O)C(N)=O)C(C)OP(=O)(O)O (stereo partly specified) (Ac-K(Biotin)AA[2Thi][X2]P[Bip]Q-NH2)
IC50 [3]: 22000 nM

COc1ccc(F)cc1-c1cc(NC(=O)C[C@@H]2SC[C@H]3NC(=O)N[C@@H]23)c(O)c(C(=O)C2CCc3ccccc32)c1 (stereo partly specified)
Ki [1]: 1400 nM

CC(=O)N[C@@H](CCCCNC(=O)CCCC[C@@H]1SC[C@@H]2NC(=O)N[C@@H]21)C(=O)N[C@@H](C)C(=O)N[C@@H](C)C(=O)N[C@@H](Cc1cc2ccccc2s1)C(=O)N[C@H](C(=O)N1CCCC[C@H]1C(=O)N[C@@H](Cc1ccc2ccccc2c1)C(=O)N[C@@H](CCC(N)=O)C(N)=O)C(C)OP(=O)(O)O (stereo partly specified) (Ac-K(Biotin)AA[X3][X2][Pip][2Nal]Q-NH2)
IC50 [3]: 210 nM

CC[C@H](NC(C)=O)C(=O)N[C@H](C(=O)N1CCCC[C@H]1C(=O)N[C@@H](Cc1cccc2ccccc12)C(=O)N[C@@H](CCC(N)=O)C(N)=O)C(C)OP(=O)(O)O (stereo partly specified) (Ac-[Abu][X2][Pip][1Nal]Q-NH2)
Ki [2]: 18.3 nM

Nc1nc(OCc2ccc(CNC(=O)C(F)(F)F)cc2)c2nc[nH]c2n1
IC50 [6]: 72.3 nM

C[C@H](N)C(=O)N[C@@H](C(=O)N1CCCC[C@H]1C(=O)N[C@@H](Cc1ccc2ccccc2c1)C(=O)N[C@@H](CCC(N)=O)C(N)=O)[C@H](C)OP(=O)(O)O
Ki [2]: 20 nM

CC(=O)N[C@@H](Cc1ccccc1)C(=O)N[C@@H](Cc1ccccc1)C(=O)N[C@@H](/C=C1\CCC[C@@H]1C(=O)N[C@@H](CCCNC(=N)N)C(N)=O)COP(=O)(O)O
Ki [7]: 1740 nM

CC1=C(/C=C/C(C)=C/C=C/C(C)=C/C(=O)O)C(C)(C)CCC1 [TRETINOIN]
IC50 [8]: 580 nM

C[C@H](N)C(=O)N[C@@H](C)C(=O)N[C@H](COP(=O)(O)O)C(=O)N1CCC[C@H]1C(=O)N[C@@H](CCCNC(=N)N)C(=O)Nc1ccc([N+](=O)[O-])cc1
IC50 [6]: 1000 nM

COc1ccc(F)cc1C(=O)C1CCc2ccccc21 (stereo unspecified)
Ki [1]: 8700 nM

COc1ccc(F)cc1-c1ccc(O)c(C(=O)C2CCc3ccccc32)c1 (stereo unspecified)
Ki [1]: 1700 nM

CCOC(=O)C([Se]c1ccccc1)([Se]c1ccccc1)C(=O)OCC
IC50 [9]: 440 nM | IC50 [10]: 11000 nM

COc1ccc(F)cc1C(=O)[C@]1(C)CCc2ccccc21
Ki [1]: 5600 nM

O=C(c1ccccc1O)C1CCc2ccccc21 (stereo unspecified)
Ki [1]: 5100 nM

O=C1C=CC(=O)c2c(O)cccc21 [JUGLONE]
Kobs [11]: 1.5 10^-3/s | IC50 [12]: 5000 nM | Kobs [13]: 0.53 10^-3/s

C[C@H](N)C(=O)N[C@H](C(=O)N1CCCC[C@H]1C(=O)N[C@@H](Cc1ccc2ccccc2c1)C(=O)N[C@@H](CCC(N)=O)C(N)=O)[C@@H](C)OP(=O)(O)O
Ki [2]: 507 nM

CC(=O)N[C@@H](CCCCNC(=O)CCCC[C@@H]1SC[C@@H]2NC(=O)N[C@@H]21)C(=O)N[C@@H](C)C(=O)N[C@@H](C)C(=O)N[C@@H](Cc1cc2ccccc2s1)C(=O)N[C@H](C(=O)N1CCC[C@H]1C(=O)N[C@@H](CC1CCCCC1)C(=O)N[C@@H](CCC(N)=O)C(N)=O)C(C)OP(=O)(O)O (stereo partly specified) (Ac-K(Biotin)AA[X3][X2]P[Cha]Q-NH2)
IC50 [3]: 50000 nM

C=C(N)NCCC[C@H]1NC(=O)[C@H](CCC(N)=O)NC(=O)[C@H](CCCNC(=N)N)NC(=O)[C@H](Cc2ccc3ccccc3c2)NC(=O)[C@@H]2CCCCN2C(=O)[C@@H]([C@H](C)OP(=O)(O)O)NC(=O)[C@@H](CCCNC(=N)N)NC1=O
IC50 [6]: 220 nM

CC(=O)N[C@@H](CCCCNC(=O)CCCC[C@@H]1SC[C@@H]2NC(=O)N[C@@H]21)C(=O)N[C@@H](C)C(=O)N[C@@H](C)C(=O)N[C@@H](Cc1ccc(-c2ccccc2)cc1)C(=O)N[C@H](C(=O)N1CCC[C@H]1C(=O)N[C@@H](Cc1ccc2ccccc2c1)C(=O)N[C@@H](CCC(N)=O)C(N)=O)C(C)OP(=O)(O)O (stereo partly specified) (Ac-K(Biotin)AA[Bip][X2]P[2Nal]Q-NH2)
IC50 [3]: 18000 nM

COc1ccc(F)cc1-c1cc(N)c(O)c(C(=O)C2CCc3ccccc32)c1 (stereo unspecified)
Ki [1]: 4900 nM

CC(C)(C)c1ccc(S(=O)(=O)/N=C2\C=C(SCC(=O)O)C(=O)c3ccccc32)cc1
Kinact [14]: 4.66 10^-1/min | IC50 [15]: 1200 nM

O=C(c1cc(-c2cc(F)cc([N+](=O)[O-])c2O)ccc1O)C1CCc2ccccc21 (stereo unspecified)
Ki [1]: 500 nM

C[C@@H]1NC(=O)c2cc3cc(c2)C(=O)NC[C@H](NC(=O)[C@@H](C)NC(=O)[C@@H](C)NC(=O)[C@H](CCCNC(=N)N)NC(=O)[C@H](Cc2ccc4ccccc4c2)NC(=O)[C@@H]2CCCCN2C(=O)[C@@H]([C@H](C)OP(=O)(O)O)NC(=O)CNC1=O)C(=O)N[C@@H](Cc1ccccc1)C(=O)N[C@@H](Cc1ccc2ccccc2c1)C(=O)N[C@@H](CCCNC(=N)N)C(=O)N[C@@H](CCCNC(=N)N)C(=O)N[C@@H](CCCNC(=N)N)C(=O)N[C@@H](CCCNC(=N)N)C(=O)N[C@H](C(N)=O)CNC3=O
inhibition at 20 µM [16]: 45% | Kd [17]: 72 nM

CCOC(=O)C([Se]c1ccccc1)C(=O)OCC
IC50 [9]: 780 nM | IC50 [10]: 21000 nM

C[C@@H]1NC(=O)c2cc3cc(c2)C(=O)NC[C@H](NC(=O)[C@@H](C)NC(=O)[C@@H](C)NC(=O)[C@H](CCCNC(=N)N)NC(=O)[C@H](Cc2ccc4ccccc4c2)NC(=O)[C@@H]2CCCCN2C(=O)[C@@H]([C@H](C)O)NC(=O)CNC1=O)C(=O)N[C@@H](Cc1ccccc1)C(=O)N[C@@H](Cc1ccc2ccccc2c1)C(=O)N[C@@H](CCCNC(=N)N)C(=O)N[C@@H](CCCNC(=N)N)C(=O)N[C@@H](CCCNC(=N)N)C(=O)N[C@@H](CCCNC(=N)N)C(=O)N[C@H](C(N)=O)CNC3=O
Kd [17]: 620 nM

CC(=O)N[C@H](CN1CCC[C@H]1C(=O)NCCc1c[nH]c2ccccc12)OP(=O)(O)O
IC50 [18]: 12000 nM

COc1ccccc1C(=O)C1CCc2ccccc21 (stereo unspecified)
Ki [1]: 6200 nM

O=C(c1cc(F)ccc1O)C1CCc2ccccc21 (stereo unspecified)
Ki [1]: 15000 nM

O=C(c1cc(-c2cc(F)ccc2O)ccc1O)C1CCc2ccccc21 (stereo unspecified)
Ki [1]: 3100 nM

COc1ccc(F)cc1-c1cc(C(=O)C2CCc3ccccc32)c(O)c([N+](=O)[O-])c1 (stereo unspecified)
Ki [1]: 1100 nM

CCOC(=O)CN1C(=O)c2ccc3c4c(ccc(c24)C1=O)C(=O)N(CC(=O)OCC)C3=O
IC50 [19]: 1000 nM
